{"source": "paper PMC4467398", "about": "“Preclinical antitumor activity of ST7612AA1: a new oral thiol-based histone deacetylase (HDAC) inhibitor” (Oncotarget, 2014)", "system": "DOHH2 and TMD8 DLBCL cells", "test": "Gene expression profiling (HumanHT-12 v4 BeadChip, limma), ST7612AA1 300 nM 8 hrs vs DMSO", "type": "cell-based, human"}
{"smiles": "CC(=O)SCCCCC[C@H](NC(=O)[C@H]1CCC(=O)N1)C(=O)Nc1ccccc1", "note": "[ST7612AA1]", "values": [{"measurement": "AveExpr.ST7612 TANK (probe ILMN_1715069)", "setting": "300 nM 8 hrs", "result": "8.21E-01"}, {"measurement": "AveExpr.ST7612 TBC1D7 (probe ILMN_1661622)", "setting": "300 nM 8 hrs", "result": "7.33E-01"}, {"measurement": "AveExpr.ST7612 TBC1D16 (probe ILMN_1758457)", "setting": "300 nM 8 hrs", "result": "7.24E-01"}, {"measurement": "AveExpr.ST7612 TCEA2 (probe ILMN_1665526)", "setting": "300 nM 8 hrs", "result": "8.50E-01"}, {"measurement": "AveExpr.ST7612 TCEAL3 (probe ILMN_1734190)", "setting": "300 nM 8 hrs", "result": "7.88E-01"}, {"measurement": "AveExpr.ST7612 TCTN1 (probe ILMN_1685124)", "setting": "300 nM 8 hrs", "result": "7.81E-01"}, {"measurement": "AveExpr.ST7612 TESK2 (probe ILMN_1654370)", "setting": "300 nM 8 hrs", "result": "8.37E-01"}, {"measurement": "AveExpr.ST7612 TMEM14A (probe ILMN_1785191)", "setting": "300 nM 8 hrs", "result": "7.29E-01"}, {"measurement": "AveExpr.ST7612 TMEM49 (probe ILMN_1692754)", "setting": "300 nM 8 hrs", "result": "8.49E-01"}, {"measurement": "AveExpr.ST7612 TMEM154 (probe ILMN_2088124)", "setting": "300 nM 8 hrs", "result": "6.89E-01"}, {"measurement": "AveExpr.ST7612 TMOD2 (probe ILMN_3250273)", "setting": "300 nM 8 hrs", "result": "7.57E-01"}, {"measurement": "AveExpr.ST7612 TPRG1L (probe ILMN_1727479)", "setting": "300 nM 8 hrs", "result": "7.86E-01"}, {"measurement": "AveExpr.ST7612 TPST1 (probe ILMN_1651950)", "setting": "300 nM 8 hrs", "result": "7.51E-01"}, {"measurement": "AveExpr.ST7612 TPST2 (probe ILMN_1695432)", "setting": "300 nM 8 hrs", "result": "7.18E-01"}, {"measurement": "AveExpr.ST7612 TRAFD1 (probe ILMN_1758250)", "setting": "300 nM 8 hrs", "result": "8.52E-01"}, {"measurement": "AveExpr.ST7612 UBE2A (probe ILMN_2307455)", "setting": "300 nM 8 hrs", "result": "7.18E-01"}, {"measurement": "AveExpr.ST7612 UBTD1 (probe ILMN_1794914)", "setting": "300 nM 8 hrs", "result": "8.56E-01"}, {"measurement": "AveExpr.ST7612 UCP2 (probe ILMN_1685625)", "setting": "300 nM 8 hrs", "result": "7.30E-01"}, {"measurement": "AveExpr.ST7612 UNC84A (probe ILMN_1772316)", "setting": "300 nM 8 hrs", "result": "7.21E-01"}, {"measurement": "AveExpr.ST7612 UPLP (probe ILMN_3236765)", "setting": "300 nM 8 hrs", "result": "7.46E-01"}, {"measurement": "AveExpr.ST7612 VASH2 (probe ILMN_1692698)", "setting": "300 nM 8 hrs", "result": "7.31E-01"}, {"measurement": "AveExpr.ST7612 VPS8 (probe ILMN_1678268)", "setting": "300 nM 8 hrs", "result": "7.47E-01"}, {"measurement": "AveExpr.ST7612 WDR19 (probe ILMN_1655117)", "setting": "300 nM 8 hrs", "result": "7.77E-01"}, {"measurement": "AveExpr.ST7612 YPEL5 (probe ILMN_1711069)", "setting": "300 nM 8 hrs", "result": "6.99E-01"}, {"measurement": "AveExpr.ST7612 ZDHHC8 (probe ILMN_1789492)", "setting": "300 nM 8 hrs", "result": "8.85E-01"}, {"measurement": "AveExpr.ST7612 ZNF775 (probe ILMN_1691702)", "setting": "300 nM 8 hrs", "result": "7.39E-01"}, {"measurement": "log ratio 1999-08-31 (probe ILMN_1659953)", "setting": "300 nM 8 hrs vs DMSO", "result": "8.50E-01"}, {"measurement": "log ratio (probe ILMN_1816244)", "setting": "300 nM 8 hrs vs DMSO", "result": "7.08E-01"}, {"measurement": "log ratio (probe ILMN_1827736)", "setting": "300 nM 8 hrs vs DMSO", "result": "8.76E-01"}, {"measurement": "log ratio (probe ILMN_1909886)", "setting": "300 nM 8 hrs vs DMSO", "result": "7.98E-01"}, {"measurement": "log ratio AACS (ILMN_1698554)", "setting": "300 nM 8 hrs vs DMSO", "result": "6.24E-01"}, {"measurement": "log ratio ABCA7 (probe ILMN_1743205)", "setting": "300 nM 8 hrs vs DMSO", "result": "7.64E-01"}, {"measurement": "log ratio ABCC4 (ILMN_1788457)", "setting": "300 nM 8 hrs vs DMSO", "result": "-8.19E-01"}, {"measurement": "log ratio ABCC4 (ILMN_2194009)", "setting": "300 nM 8 hrs vs DMSO", "result": "-8.58E-01"}, {"measurement": "log ratio ABCE1 (ILMN_2330267)", "setting": "300 nM 8 hrs vs DMSO", "result": "-7.82E-01"}, {"measurement": "log ratio ACAT2 (ILMN_1708672)", "setting": "300 nM 8 hrs vs DMSO", "result": "-1.01E+00"}, {"measurement": "log ratio ACOT7 (ILMN_2332250)", "setting": "300 nM 8 hrs vs DMSO", "result": "6.55E-01"}, {"measurement": "log ratio ACSL3 (ILMN_2360705)", "setting": "300 nM 8 hrs vs DMSO", "result": "5.95E-01"}, {"measurement": "log ratio ACSL5 (ILMN_1705247)", "setting": "300 nM 8 hrs vs DMSO", "result": "-1.24E+00"}, {"measurement": "log ratio ACSL5 (ILMN_2370882)", "setting": "300 nM 8 hrs vs DMSO", "result": "-9.69E-01"}, {"measurement": "log ratio ADARB1 (probe ILMN_1679797)", "setting": "300 nM 8 hrs vs DMSO", "result": "7.60E-01"}, {"measurement": "log ratio ADD3 (ILMN_1787378)", "setting": "300 nM 8 hrs vs DMSO", "result": "6.27E-01"}, {"measurement": "log ratio ADD3 (ILMN_1814526)", "setting": "300 nM 8 hrs vs DMSO", "result": "6.45E-01"}, {"measurement": "log ratio ADD3 (ILMN_2311278)", "setting": "300 nM 8 hrs vs DMSO", "result": "6.14E-01"}, {"measurement": "log ratio ADIPOR2 (ILMN_2224833)", "setting": "300 nM 8 hrs vs DMSO", "result": "6.41E-01"}, {"measurement": "log ratio ADNP2 (ILMN_2080751)", "setting": "300 nM 8 hrs vs DMSO", "result": "6.66E-01"}, {"measurement": "log ratio ADRBK1 (ILMN_3307926)", "setting": "300 nM 8 hrs vs DMSO", "result": "-6.13E-01"}, {"measurement": "log ratio ADSS (ILMN_2092664)", "setting": "300 nM 8 hrs vs DMSO", "result": "-8.15E-01"}, {"measurement": "log ratio AFMID (ILMN_1707551)", "setting": "300 nM 8 hrs vs DMSO", "result": "6.36E-01"}, {"measurement": "log ratio AGTPBP1 (ILMN_1718071)", "setting": "300 nM 8 hrs vs DMSO", "result": "6.75E-01"}, {"measurement": "log ratio AKAP8 (ILMN_1741572)", "setting": "300 nM 8 hrs vs DMSO", "result": "-8.28E-01"}, {"measurement": "log ratio AKAP13 (ILMN_2396956)", "setting": "300 nM 8 hrs vs DMSO", "result": "6.04E-01"}, {"measurement": "log ratio ALDH2 (probe ILMN_1793859)", "setting": "300 nM 8 hrs vs DMSO", "result": "8.03E-01"}, {"measurement": "log ratio ALDH3A2 (ILMN_1794825)", "setting": "300 nM 8 hrs vs DMSO", "result": "6.08E-01"}, {"measurement": "log ratio ALG14 (ILMN_2191822)", "setting": "300 nM 8 hrs vs DMSO", "result": "-6.09E-01"}, {"measurement": "log ratio ALOX5 (probe ILMN_1680996)", "setting": "300 nM 8 hrs vs DMSO", "result": "8.46E-01"}, {"measurement": "log ratio ALS2 (ILMN_1750256)", "setting": "300 nM 8 hrs vs DMSO", "result": "6.20E-01"}, {"measurement": "log ratio AMOT (probe ILMN_1792409)", "setting": "300 nM 8 hrs vs DMSO", "result": "7.65E-01"}, {"measurement": "log ratio AMZ2 (ILMN_1801606)", "setting": "300 nM 8 hrs vs DMSO", "result": "6.00E-01"}, {"measurement": "log ratio ANAPC13 (ILMN_1793894)", "setting": "300 nM 8 hrs vs DMSO", "result": "-1.08E+00"}, {"measurement": "log ratio ANKLE1 (ILMN_3243457)", "setting": "300 nM 8 hrs vs DMSO", "result": "-8.03E-01"}, {"measurement": "log ratio ANKMY2 (ILMN_1784292)", "setting": "300 nM 8 hrs vs DMSO", "result": "5.99E-01"}, {"measurement": "log ratio ANKRD6 (ILMN_2178587)", "setting": "300 nM 8 hrs vs DMSO", "result": "6.74E-01"}, {"measurement": "log ratio ANKRD41 (ILMN_2091590)", "setting": "300 nM 8 hrs vs DMSO", "result": "-9.47E-01"}, {"measurement": "log ratio ANP32B (ILMN_1684293)", "setting": "300 nM 8 hrs vs DMSO", "result": "-9.66E-01"}, {"measurement": "log ratio APAF1 (probe ILMN_1659463)", "setting": "300 nM 8 hrs vs DMSO", "result": "8.78E-01"}, {"measurement": "log ratio APLP1 (probe ILMN_1763834)", "setting": "300 nM 8 hrs vs DMSO", "result": "8.17E-01"}, {"measurement": "log ratio APLP2 (ILMN_1710482)", "setting": "300 nM 8 hrs vs DMSO", "result": "5.98E-01"}, {"measurement": "log ratio ARFIP1 (ILMN_2403906)", "setting": "300 nM 8 hrs vs DMSO", "result": "5.95E-01"}, {"measurement": "log ratio ARG2 (ILMN_1800898)", "setting": "300 nM 8 hrs vs DMSO", "result": "6.68E-01"}, {"measurement": "log ratio ARID2 (ILMN_2182335)", "setting": "300 nM 8 hrs vs DMSO", "result": "-6.15E-01"}, {"measurement": "log ratio ARL6IP1 (probe ILMN_1708416)", "setting": "300 nM 8 hrs vs DMSO", "result": "6.93E-01"}, {"measurement": "log ratio ARSB (ILMN_2242937)", "setting": "300 nM 8 hrs vs DMSO", "result": "-9.59E-01"}, {"measurement": "log ratio ATG2A (probe ILMN_1756006)", "setting": "300 nM 8 hrs vs DMSO", "result": "8.92E-01"}, {"measurement": "log ratio ATP6V0C (ILMN_1789005)", "setting": "300 nM 8 hrs vs DMSO", "result": "6.37E-01"}]}
